4 compounds from ChEMBL document CHEMBL1909046, “DrugMatrix in vitro pharmacology data” can be followed below.

In one experiment the target is T1, Alpha-2C adrenergic receptor (Homo sapiens, UniProt P18825).
T1 sequence (P18825 whole entry): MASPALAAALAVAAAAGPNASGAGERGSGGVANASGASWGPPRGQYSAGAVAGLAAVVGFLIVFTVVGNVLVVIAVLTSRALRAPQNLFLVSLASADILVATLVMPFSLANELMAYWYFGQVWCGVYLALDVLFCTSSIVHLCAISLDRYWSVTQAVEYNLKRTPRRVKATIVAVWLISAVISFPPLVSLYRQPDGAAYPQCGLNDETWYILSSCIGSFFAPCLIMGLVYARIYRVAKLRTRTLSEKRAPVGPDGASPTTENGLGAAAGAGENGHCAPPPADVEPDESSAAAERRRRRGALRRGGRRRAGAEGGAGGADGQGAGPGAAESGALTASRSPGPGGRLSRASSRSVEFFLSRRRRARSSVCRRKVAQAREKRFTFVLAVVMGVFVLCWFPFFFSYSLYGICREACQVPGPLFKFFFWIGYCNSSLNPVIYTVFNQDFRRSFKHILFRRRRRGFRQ
The experiment is described as follows: DRUGMATRIX: Adrenergic Alpha-2C radioligand binding (ligand: [3H] MK-912). Format: cell membranes, Sf9, Membrane. Conditions: read-out: IC50.
As a reminder, the IC50 is the midpoint of a concentration-inhibition curve. `C[C@]12CC[C@@H]3c4ccc(OC(=O)c5ccccc5)cc4CC[C@H]3[C@@H]1CC[C@@H]2O` [ESTRADIOL BENZOATE]: the IC50 was determined as 24.6 µM.

Regarding `CN(C)c1ccc(C(=C2C=CC(=[N+](C)C)C=C2)c2ccc(N(C)C)cc2)cc1.[Cl-]` [GENTIAN VIOLET], the IC50 came out at 1.88 µM.

The same experiment, now with this note: read-out: Ki.
For orientation: Ki means the equilibrium dissociation constant of an inhibitor or competing ligand from its target. `C[C@]12CC[C@@H]3c4ccc(OC(=O)c5ccccc5)cc4CC[C@H]3[C@@H]1CC[C@@H]2O` [ESTRADIOL BENZOATE]: the Ki came to 3.58 µM.

Take `CN(C)c1ccc(C(=C2C=CC(=[N+](C)C)C=C2)c2ccc(N(C)C)cc2)cc1.[Cl-]` [GENTIAN VIOLET]: the inhibition constant Ki worked out at 0.274 µM.

The experiment is the same for the next values; noted with them: sf9.
For the compound `C[C@]12CC[C@@H]3c4ccc(O)cc4CC[C@H]3[C@@H]1CC[C@@H]2O` [ESTRADIOL], the IC50 entry is given as “Not Active”.

`CC[C@@H](CO)NCCN[C@@H](CC)CO` [ETHAMBUTOL]: the IC50 entry is “Not Active”.

For a further experiment, the target named is Sodium-dependent noradrenaline transporter (Homo sapiens, UniProt P23975). Put plainly: DRUGMATRIX: Norepinephrine Transporter radioligand binding (ligand: [125I] RTI-55). It is filed as cell membranes, MDCK, Membrane. The note with it: Not Active = under 50% inhibition at 10 µM; read-out: IC50.
Sequence of Sodium-dependent noradrenaline transporter (P23975 whole entry): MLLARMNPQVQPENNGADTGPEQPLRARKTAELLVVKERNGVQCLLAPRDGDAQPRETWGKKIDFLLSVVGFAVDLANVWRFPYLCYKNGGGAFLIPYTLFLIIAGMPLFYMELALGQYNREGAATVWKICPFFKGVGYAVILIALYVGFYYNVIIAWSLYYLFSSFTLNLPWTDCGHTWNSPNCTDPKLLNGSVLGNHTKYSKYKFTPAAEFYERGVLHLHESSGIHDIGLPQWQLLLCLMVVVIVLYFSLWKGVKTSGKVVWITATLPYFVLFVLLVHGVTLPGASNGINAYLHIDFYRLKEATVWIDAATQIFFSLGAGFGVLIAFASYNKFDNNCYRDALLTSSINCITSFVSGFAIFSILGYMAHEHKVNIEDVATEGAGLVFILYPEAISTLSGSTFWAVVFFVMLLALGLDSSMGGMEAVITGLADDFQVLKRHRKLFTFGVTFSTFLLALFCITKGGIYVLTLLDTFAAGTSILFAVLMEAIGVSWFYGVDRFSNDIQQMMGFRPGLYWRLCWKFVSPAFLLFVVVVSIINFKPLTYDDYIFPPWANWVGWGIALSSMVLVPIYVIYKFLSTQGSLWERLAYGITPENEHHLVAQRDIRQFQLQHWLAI
Consider `C[C@]12CC[C@@H]3c4ccc(OC(=O)c5ccccc5)cc4CC[C@H]3[C@@H]1CC[C@@H]2O` [ESTRADIOL BENZOATE], for which the IC50 was 17.2 µM.

Staying with this experiment, now noted: Not Active = under 50% inhibition at 10 µM; read-out: Ki.
Regarding `C[C@]12CC[C@@H]3c4ccc(OC(=O)c5ccccc5)cc4CC[C@H]3[C@@H]1CC[C@@H]2O` [ESTRADIOL BENZOATE], the Ki was determined as 17.1 µM.

The same experiment, now with this note: mdck; Not Active = under 50% inhibition at 10 µM.
For the compound `C[C@]12CC[C@@H]3c4ccc(O)cc4CC[C@H]3[C@@H]1CC[C@@H]2O` [ESTRADIOL], the IC50 entry was “Not Active”.

Regarding `CC[C@@H](CO)NCCN[C@@H](CC)CO` [ETHAMBUTOL], the IC50 result is on record as “Not Active”.

In the case of `CN(C)c1ccc(C(=C2C=CC(=[N+](C)C)C=C2)c2ccc(N(C)C)cc2)cc1.[Cl-]` [GENTIAN VIOLET], the IC50 result is “Not Active”.

System in a further experiment: not listed separately
The experiment is described as follows: DRUGMATRIX: GABAA, Muscimol, Central radioligand binding (ligand: [3H] Muscimol). Conditions: Not Active = under 50% inhibition at 10 µM. It is filed as cell membranes, Rattus norvegicus, Wistar, Brain, Membrane.
As for `C[C@]12CC[C@@H]3c4ccc(OC(=O)c5ccccc5)cc4CC[C@H]3[C@@H]1CC[C@@H]2O` [ESTRADIOL BENZOATE], the IC50 result was “Not Active” and the Ki entry is given as “Not Active”.

Regarding `C[C@]12CC[C@@H]3c4ccc(O)cc4CC[C@H]3[C@@H]1CC[C@@H]2O` [ESTRADIOL], the IC50 result is listed as “Not Active” and the Ki entry is “Not Active”.

As for `CC[C@@H](CO)NCCN[C@@H](CC)CO` [ETHAMBUTOL], the IC50 entry is given as “Not Active” and the Ki entry is “Not Active”.

`CN(C)c1ccc(C(=C2C=CC(=[N+](C)C)C=C2)c2ccc(N(C)C)cc2)cc1.[Cl-]` [GENTIAN VIOLET]: the IC50 result is “Not Active” and the Ki entry is recorded as “Not Active”.

System in the next experiment: not listed separately
The experiment is described as follows: DRUGMATRIX: Glutamate, NMDA, Agonism radioligand binding (ligand: [3H] CGP-39653). It is filed as cell membranes, Rattus norvegicus, Wistar, Cerebral cortex, Membrane. The note with it: Not Active = under 50% inhibition at 10 µM.
For `C[C@]12CC[C@@H]3c4ccc(OC(=O)c5ccccc5)cc4CC[C@H]3[C@@H]1CC[C@@H]2O` [ESTRADIOL BENZOATE], the IC50 entry was “Not Active” and the Ki result is on record as “Not Active”.

Consider `C[C@]12CC[C@@H]3c4ccc(O)cc4CC[C@H]3[C@@H]1CC[C@@H]2O` [ESTRADIOL], for which the IC50 entry is “Not Active” and the Ki entry is recorded as “Not Active”.

In the case of `CC[C@@H](CO)NCCN[C@@H](CC)CO` [ETHAMBUTOL], the IC50 entry is recorded as “Not Active” and the Ki result was “Not Active”.

Consider `CN(C)c1ccc(C(=C2C=CC(=[N+](C)C)C=C2)c2ccc(N(C)C)cc2)cc1.[Cl-]` [GENTIAN VIOLET], for which the IC50 entry is “Not Active” and the Ki result was “Not Active”.

System in a further experiment: not listed separately
Put plainly: DRUGMATRIX: Interleukin IL-1 radioligand binding (ligand: [125I] interleukin 1beta). It is filed as cell membranes, Membrane. Conditions: nih3t3; Not Active = under 50% inhibition at 10 µM.
Regarding `C[C@]12CC[C@@H]3c4ccc(OC(=O)c5ccccc5)cc4CC[C@H]3[C@@H]1CC[C@@H]2O` [ESTRADIOL BENZOATE], the IC50 result is reported as “Not Active” and the Ki entry was “Not Active”.

In the case of `C[C@]12CC[C@@H]3c4ccc(O)cc4CC[C@H]3[C@@H]1CC[C@@H]2O` [ESTRADIOL], the IC50 result is “Not Active” and the Ki result is reported as “Not Active”.

On to `CC[C@@H](CO)NCCN[C@@H](CC)CO` [ETHAMBUTOL], for which the IC50 entry is given as “Not Active” and the Ki entry was “Not Active”.

Take `CN(C)c1ccc(C(=C2C=CC(=[N+](C)C)C=C2)c2ccc(N(C)C)cc2)cc1.[Cl-]` [GENTIAN VIOLET]: the IC50 entry is recorded as “Not Active” and the Ki entry is “Not Active”.

In another experiment the target is Protein phosphatase 3 catalytic subunit alpha (Homo sapiens, UniProt Q08209). Also on record: species or system Escherichia coli.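 Further: inhibition of calcineurin (PP2B) enzyme activity, measured with DiFMUP as the substrate; in other assays of this panel Not Active means under 50% inhibition at 10 µM.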
Settings: not given
Consider `C[C@]12CC[C@@H]3c4ccc(OC(=O)c5ccccc5)cc4CC[C@H]3[C@@H]1CC[C@@H]2O` [ESTRADIOL BENZOATE], for which the IC50 result was “Not Active”.

Turning to `C[C@]12CC[C@@H]3c4ccc(O)cc4CC[C@H]3[C@@H]1CC[C@@H]2O` [ESTRADIOL], the IC50 entry is listed as “Not Active”.

In the case of `CC[C@@H](CO)NCCN[C@@H](CC)CO` [ETHAMBUTOL], the IC50 entry was “Not Active”.

For the compound `CN(C)c1ccc(C(=C2C=CC(=[N+](C)C)C=C2)c2ccc(N(C)C)cc2)cc1.[Cl-]` [GENTIAN VIOLET], the IC50 entry is “Not Active”.

The target in the next experiment is Acetylcholinesterase (Homo sapiens, UniProt P22303). The experiment is described as follows: DRUGMATRIX: Acetylcholinesterase enzyme inhibition (substrate: acetylthiocholine). It is filed as cell-based, HEK293. The note with it: Not Active = under 50% inhibition at 10 µM; read-out: IC50.
Sequence of Acetylcholinesterase (P22303 whole entry): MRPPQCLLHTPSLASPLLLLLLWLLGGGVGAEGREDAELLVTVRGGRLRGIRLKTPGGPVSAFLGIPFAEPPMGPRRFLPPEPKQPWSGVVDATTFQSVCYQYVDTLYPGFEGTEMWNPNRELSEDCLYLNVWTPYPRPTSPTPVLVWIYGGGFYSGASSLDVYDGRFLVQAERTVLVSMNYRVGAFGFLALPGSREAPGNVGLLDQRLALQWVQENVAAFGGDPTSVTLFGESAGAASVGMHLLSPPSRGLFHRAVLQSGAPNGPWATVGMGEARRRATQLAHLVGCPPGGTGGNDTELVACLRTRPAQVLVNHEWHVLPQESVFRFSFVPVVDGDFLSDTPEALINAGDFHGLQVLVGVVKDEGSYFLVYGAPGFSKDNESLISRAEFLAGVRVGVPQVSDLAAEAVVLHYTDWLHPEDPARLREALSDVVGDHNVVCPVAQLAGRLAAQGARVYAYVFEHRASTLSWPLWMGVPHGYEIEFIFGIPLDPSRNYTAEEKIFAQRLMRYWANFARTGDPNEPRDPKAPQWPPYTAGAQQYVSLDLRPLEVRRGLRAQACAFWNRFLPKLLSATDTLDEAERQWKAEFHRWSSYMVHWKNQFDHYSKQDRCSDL
For `CN(C)c1ccc(C(=C2C=CC(=[N+](C)C)C=C2)c2ccc(N(C)C)cc2)cc1.[Cl-]` [GENTIAN VIOLET], the concentration for half-maximal inhibition (IC50) is 5.85 µM.

Still in this experiment, the particulars now being: hek293; Not Active = under 50% inhibition at 10 µM.
On to `C[C@]12CC[C@@H]3c4ccc(OC(=O)c5ccccc5)cc4CC[C@H]3[C@@H]1CC[C@@H]2O` [ESTRADIOL BENZOATE], for which the IC50 entry is “Not Active”.

In the case of `C[C@]12CC[C@@H]3c4ccc(O)cc4CC[C@H]3[C@@H]1CC[C@@H]2O` [ESTRADIOL], the IC50 entry was “Not Active”.

On to `CC[C@@H](CO)NCCN[C@@H](CC)CO` [ETHAMBUTOL], for which the IC50 entry is “Not Active”.
